Measurements from US4476120A, “Thiolic derivatives of erythromycin having therapeutic activity, and pharmaceutical compositions containing them” (Sigma Tau Indistrie Farmaceutiche Riunites, p.A, priority 1982, dated 1984).
Values after ≈ are worked out from the molar mass of the structure shown. Where two headings read alike, the source gives them in different places.

Key:
B. subtilis ATCC 6633 = format: cell-based; conditions: Brain Heart Infusion, estolate and RV11-RV15 previously hydrolized, unit assumed
[1] = Mucolytic activity: obstruction of the bronchial tract after SO2 inhalation; format: in vivo, Sprague Dawley male rats; conditions: SO2, 15 days
[2] = Hematic levels in the rat (absorption by oral route); conditions: for absorption by oral route (in words): from in vivo antibacterial and pharmacodynamic tests
Staph. aureus SS 07 = format: cell-based; conditions: Brain Heart Infusion, estolate and RV11-RV15 previously hydrolized, unit assumed
B. anthranis SS 09 = format: cell-based; conditions: B. anthranis SS 09 (14 bis); Brain Heart Infusion; estolate and RV11-RV15 previously hydrolized; unit assumed
[3] = Hematic levels in the healthy volunteer; format: in vivo, healthy volunteers; conditions: oral, 500 mg of erythromycin, average
Source text: For the dosing, the microbiological method using a B. subtilis strain was adopted.

[4] = in vivo; for Hematic levels in the rat: po, 100 mg/kg; for absorption by oral route (in words): rat
[5] = 0.30 hours, 100 mg/kg as erythromycin, average, 100 mg/kg, 18 min
[6] = 1 hour, 100 mg/kg as erythromycin, average, 100 mg/kg, 60 min
[7] = 2 hours, 100 mg/kg as erythromycin, average, 100 mg/kg, 120 min
[8] = 3 hours, 100 mg/kg as erythromycin, average, 100 mg/kg, 180 min
[9] = 4 hours, 100 mg/kg as erythromycin, average, 100 mg/kg, 240 min
[10] = 5 hours, 100 mg/kg as erythromycin, average, 100 mg/kg, 300 min
[11] = 6 hours, 100 mg/kg as erythromycin, average, 100 mg/kg, 360 min

Row | Compound | MIC (B. subtilis ATCC 6633) [µg/mL] | Partial obstruction (% incidence) ([1]; i.m., 250 mg/kg) [%] | Total obstruction, compact plug (% incidence) ([1]; i.m., 250 mg/kg) [%] | Total obstruction, nodular mass (% incidence) ([1]; i.m., 250 mg/kg) [%] | Total obstruction, pimply mass (% incidence) ([1]; i.m., 250 mg/kg) [%] | Hematic levels in the rat [2, 5] [µg/mL] | Hematic levels in the rat [2, 6] [µg/mL] | Hematic levels in the rat [2, 7] [µg/mL] | Hematic levels in the rat [2, 8] [µg/mL] | Hematic levels in the rat [2, 9] [µg/mL] | Hematic levels in the rat [2, 10] [µg/mL] | Hematic levels in the rat [2, 11] [µg/mL] | absorption by oral route (in words) [2] | MIC (Staph. aureus SS 07) [µg/mL] | MIC (B. anthranis SS 09) [µg/mL] | Partial obstruction (% incidence) ([1]; oral, 500 mg/kg) [%] | Total obstruction, compact plug (% incidence) ([1]; oral, 500 mg/kg) [%] | Total obstruction, nodular mass (% incidence) ([1]; oral, 500 mg/kg) [%] | Total obstruction, pimply mass (% incidence) ([1]; oral, 500 mg/kg) [%] | Hematic levels in the healthy volunteer ([3]; 0.30 hours, 18 min) [µg/mL] | also measured
1 | CC[C@H]1OC(=O)[C@H](C)[C@@H](O[C@H]2C[C@@](C)(OC)[C@@H](O)[C@H](C)O2)[C@H](C)[C@@H](O[C@@H]2O[C@H](C)C[C@H](N(C)C)[C@H]2O)[C@](C)(O)C[C@@H](C)C(=O)[C@H](C)[C@@H](O)[C@]1(C)O [RV04, erythromycin-S-carboxymethylcysteinate] | 0.025 (≈ 0.0341 µM) | 13.33 | 20 | 13.33 | 6.66 | 0.50 | 0.71 | 1.30 | 1.04 | 0.68 | 0.43 | 0.15 | poorly absorbed by oral route and in a rate like that of erythromycin base | 0.025 (≈ 0.0341 µM) | 0.2 (≈ 0.273 µM) | – | – | – | – | – | –
2 | CC[C@H]1OC(=O)[C@H](C)[C@@H](O[C@H]2C[C@@](C)(OC)[C@@H](O)[C@H](C)O2)[C@H](C)[C@@H](O[C@@H]2O[C@H](C)C[C@H](N(C)C)[C@H]2O)[C@](C)(O)C[C@@H](C)C(=O)[C@H](C)[C@@H](O)[C@]1(C)O [RV05, erythromycin-N-acetylcysteinate] | 0.01 (≈ 0.0136 µM) | 6.66 | 20 | 13.33 | 6.66 | 0.44 | 0.83 | 1.41 | 1.03 | 0.59 | 0.40 | 0.08 | poorly absorbed by oral route and in a rate like that of erythromycin base | 0.025 (≈ 0.0341 µM) | 0.4 (≈ 0.545 µM) | – | – | – | – | – | –
3 | CC[C@H]1OC(=O)[C@H](C)[C@@H](O[C@H]2C[C@@](C)(OC)[C@@H](O)[C@H](C)O2)[C@H](C)[C@@H](O[C@@H]2O[C@H](C)C[C@H](N(C)C)[C@H]2O)[C@](C)(O)C[C@@H](C)C(=O)[C@H](C)[C@@H](O)[C@]1(C)O [RV01, erythromycin alpha-mercaptosuccinate] | 0.01 (≈ 0.0136 µM) | 13.33 | 26.66 | 6.66 | 13.33 | 0.48 | 0.79 | – | – | 0.44 | 0.24 | 0.03 | poorly absorbed by oral route and in a rate like that of erythromycin base | 0.05 (≈ 0.0681 µM) | 0.4 (≈ 0.545 µM) | – | – | – | – | – | concentration at 2 h ([2]; rat, blood, po, 100 mg/kg, Hematic levels in the rat, 2 hours, 100 mg/kg as erythromycin, average): 1180 ng/mL; concentration at 3 h ([2]; rat, blood, po, 100 mg/kg, Hematic levels in the rat, 3 hours, 100 mg/kg as erythromycin, average): 770 ng/mL
4 | CCC(=O)O[C@H]1[C@H](O[C@@H]2[C@@H](C)[C@H](O[C@H]3C[C@@](C)(OC)[C@@H](O)[C@H](C)O3)[C@@H](C)C(=O)O[C@H](CC)[C@@](C)(O)[C@H](O)[C@@H](C)C(=O)[C@H](C)C[C@@]2(C)O)O[C@H](C)C[C@@H]1N(C)C [RV13, erythromycin-monopropionate-thiazolidin-carboxylate] | 0.025 (≈ 0.0316 µM) | – | – | – | – | – | – | – | – | – | – | – | – | 0.025 (≈ 0.0316 µM) | 0.4 (≈ 0.506 µM) | 20 | 20 | 6.66 | 13.33 | 1.16 | Hematic levels in the healthy volunteer ([3]; 1 hour, 60 min): 1.67 µg/mL; Hematic levels in the healthy volunteer ([3]; 2 hours, 120 min): 2.21 µg/mL; Hematic levels in the healthy volunteer ([3]; 3 hours, 180 min): 1.67 µg/mL; Hematic levels in the healthy volunteer ([3]; 4 hours, 240 min): 1.29 µg/mL; Hematic levels in the rat ([4]; 0.3 h): 0.81 µg/mL; Hematic levels in the rat ([4]; 1 h): 1.80 µg/mL; Hematic levels in the rat ([4]; 2 h): 2.47 µg/mL; Hematic levels in the rat ([4]; 3 h): 1.10 µg/mL; Hematic levels in the rat ([4]; 4 h): 0.72 µg/mL; Hematic levels in the rat ([4]; 5 h): 0.52 µg/mL; Hematic levels in the rat ([4]; 6 h): 0.12 µg/mL; absorption by oral route (in words) [4]: absorbed by oral route in a rate practically analogous to that of erythromycin estolate
5 | CCC(=O)O[C@H]1[C@H](O[C@@H]2[C@@H](C)[C@H](O[C@H]3C[C@@](C)(OC)[C@@H](O)[C@H](C)O3)[C@@H](C)C(=O)O[C@H](CC)[C@@](C)(O)[C@H](O)[C@@H](C)C(=O)[C@H](C)C[C@@]2(C)O)O[C@H](C)C[C@@H]1N(C)C [RV15, erythromycin monopropionate N-acetylcysteinate] | 0.01 (≈ 0.0127 µM) | – | – | – | – | – | – | – | – | – | – | – | – | 0.025 (≈ 0.0316 µM) | 0.4 (≈ 0.506 µM) | 6.66 | 20 | 13.33 | 6.66 | 1.10 | Hematic levels in the healthy volunteer ([3]; 1 hour, 60 min): 1.58 µg/mL; Hematic levels in the healthy volunteer ([3]; 2 hours, 120 min): 2.17 µg/mL; Hematic levels in the healthy volunteer ([3]; 3 hours, 180 min): 1.72 µg/mL; Hematic levels in the healthy volunteer ([3]; 4 hours, 240 min): 1.38 µg/mL; Hematic levels in the rat ([4]; 0.3 h): 0.85 µg/mL; Hematic levels in the rat ([4]; 1 h): 1.90 µg/mL; Hematic levels in the rat ([4]; 2 h): 2.68 µg/mL; Hematic levels in the rat ([4]; 3 h): 1.19 µg/mL; Hematic levels in the rat ([4]; 4 h): 0.55 µg/mL; Hematic levels in the rat ([4]; 5 h): 0.44 µg/mL; Hematic levels in the rat ([4]; 6 h): 0.03 µg/mL; absorption by oral route (in words) [4]: absorbed by oral route in a rate practically analogous to that of erythromycin estolate
6 | CCC(=O)O[C@H]1[C@H](O[C@@H]2[C@@H](C)[C@H](O[C@H]3C[C@@](C)(OC)[C@@H](O)[C@H](C)O3)[C@@H](C)C(=O)O[C@H](CC)[C@@](C)(O)[C@H](O)[C@@H](C)C(=O)[C@H](C)C[C@@]2(C)O)O[C@H](C)C[C@@H]1N(C)C [RV11, erythromycin-monopropionate-alpha-mercaptosuccinate] | 0.025 (≈ 0.0316 µM) | – | – | – | – | – | – | – | – | – | – | – | – | 0.05 (≈ 0.0633 µM) | 0.4 (≈ 0.506 µM) | 13.33 | 20 | 6.66 | 6.66 | 1.28 | Hematic levels in the healthy volunteer ([3]; 1 hour, 60 min): 1.70 µg/mL; Hematic levels in the healthy volunteer ([3]; 2 hours, 120 min): 2.16 µg/mL; Hematic levels in the healthy volunteer ([3]; 3 hours, 180 min): 1.48 µg/mL; Hematic levels in the healthy volunteer ([3]; 4 hours, 240 min): 1.21 µg/mL; Hematic levels in the rat ([4]; 0.3 h): 0.72 µg/mL; Hematic levels in the rat ([4]; 1 h): 1.64 µg/mL; Hematic levels in the rat ([4]; 2 h): 2.50 µg/mL; Hematic levels in the rat ([4]; 3 h): 1.31 µg/mL; Hematic levels in the rat ([4]; 4 h): 0.58 µg/mL; Hematic levels in the rat ([4]; 5 h): 0.38 µg/mL; Hematic levels in the rat ([4]; 6 h): 0.08 µg/mL; absorption by oral route (in words) [4]: absorbed by oral route in a rate practically analogous to that of erythromycin estolate
7 | CC[C@H]1OC(=O)[C@H](C)[C@@H](O[C@H]2C[C@@](C)(OC)[C@@H](O)[C@H](C)O2)[C@H](C)[C@@H](O[C@@H]2O[C@H](C)C[C@H](N(C)C)[C@H]2O)[C@](C)(O)C[C@@H](C)C(=O)[C@H](C)[C@@H](O)[C@]1(C)O [RV03, erythromycyn-thiazolidin-carboxylate] | 0.05 (≈ 0.0681 µM) | 6.66 | 26.66 | 20 | 6.66 | 0.58 | 0.71 | 1.30 | 0.77 | 0.59 | 0.36 | 0.07 | poorly absorbed by oral route and in a rate like that of erythromycin base | 0.025 (≈ 0.0341 µM) | 0.4 (≈ 0.545 µM) | – | – | – | – | – | –
